In the experiment the target is T1, NS5B (Hepatitis C virus genotype 1b, UniProt Q9WMX2).
T1 construct: 3 nM NS5B, 20 nM polyC RNA template
T1 sequence (Q9WMX2 2420-3010): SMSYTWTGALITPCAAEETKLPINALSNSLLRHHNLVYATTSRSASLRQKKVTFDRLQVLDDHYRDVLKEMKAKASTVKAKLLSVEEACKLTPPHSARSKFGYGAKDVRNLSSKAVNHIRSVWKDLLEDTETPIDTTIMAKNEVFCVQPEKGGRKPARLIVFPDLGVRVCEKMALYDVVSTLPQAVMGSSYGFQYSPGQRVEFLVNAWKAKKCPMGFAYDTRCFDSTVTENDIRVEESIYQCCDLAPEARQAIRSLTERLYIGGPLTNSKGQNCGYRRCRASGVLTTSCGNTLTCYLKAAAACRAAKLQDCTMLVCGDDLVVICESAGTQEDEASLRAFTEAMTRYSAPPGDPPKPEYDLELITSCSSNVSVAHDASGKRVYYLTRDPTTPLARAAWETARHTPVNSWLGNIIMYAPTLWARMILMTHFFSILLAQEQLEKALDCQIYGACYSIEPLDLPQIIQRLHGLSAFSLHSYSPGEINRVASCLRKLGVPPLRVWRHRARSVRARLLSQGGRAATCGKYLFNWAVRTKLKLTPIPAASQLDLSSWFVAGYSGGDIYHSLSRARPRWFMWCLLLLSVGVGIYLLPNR
Description: Polymerase assay, incorporation of radiolabeled GTP with biotinylated oligoG13 primer and polycytidylic acid RNA template. Type of experiment: biochemical. The conditions noted are these: polyC RNA template, biotin-oligoG13 primer, tritiated GTP, 3 nM NS5B, 30° C., 2 hours. How it is done: The polymerase activity was also assayed by measuring incorporation of radiolabeled GTP into an RNA product using a biotinylated oligoG13 primer with a polycytidylic acid RNA template. Typically, the assay mixture (40 μL) contains 50 mM HEPES (pH 7.3), 2.5 mM magnesium acetate, 2 mM sodium chloride, 37.5 mM potassium acetate, 5 mM DTT, 0.4 U/mL RNasin, 2.5% glycerol, 3 nM NS5B, 20 nM polyC RNA template, 20 nM biotin-oligoG13 primer, and 0.2 μM tritiated guanosine triphosphate. Test compounds were initially dissolved and diluted in 100% DMSO and further diluted into aqueous buffer, producing a final concentration of 5% DMSO. Typically, compounds were tested at concentrations between 0.2 nM and 10 μM. Reactions were started with addition of tritiated guanosine triphosphate and allowed to continue at 30° C. for 2 hours. Reactions were quenched with 100 μL stop buffer containing 10 mM EDTA and 1 μg/mL streptavidin-coated scintillation proximity beads. Reaction plates were incubated at 4° C. for 10 hours and then incorporation of radioactivity was determined by scintillation counting. The table below lists the IC50 values of compounds determined using this procedure.
Usually IC50 stands for the concentration that inhibits the measured activity by half. Low values mean inhibition by little substance, high ones a need for much substance. Turning to `NC1CCN2CCn3c(c(C4CCCCC4)c4ccc(C(=O)O)cc43)-c3ccc(F)c1c32` (centres unmarked) [Compound 448], the midpoint of inhibition, the IC50, lay at 0.00505 µM.
Regarding `CC1(C)C(=O)N2CCn3c(c(C4CCCCC4)c4ccc(C(=O)O)cc43)-c3cccc(c32)[C@@H]1N` [Compound 496, (4S)-4-amino-15-cyclohexyl-5,5-dimethyl-6-oxo-5,6,8,9-tetrahydro-4H-indolo[1′,2′:4,5][1,4]diazepino[6,7,1-ij]quinoline-12-carboxylic Acid], the IC50 was 0.2 µM.
The figure for `CC1(C)CN2CCn3c(c(C4CCCCC4)c4ccc(C(=O)O)cc43)-c3cccc(c32)[C@@H]1N` [Compound 497, (4R)-4-amino-15-cyclohexyl-5,5-dimethyl-5,6,8,9-tetrahydro-4H-indolo[1′,2′:4,5][1,4]diazepino[6,7,1-ij]quinoline-12-carboxylic Acid] is 0.023 µM.
In turn, `CC1(C)C(=O)N2CCn3c(c(C4CCCCC4)c4ccc(C(=O)O)cc43)-c3cccc(c32)[C@H]1N` [Compound 498] came in with an IC50 of 0.02 µM. This IC50 and that of the compound before are within 1.5-fold of each other.
For `CC1(C)CN2CCn3c(c(C4CCCCC4)c4ccc(C(=O)O)cc43)-c3cccc(c32)[C@H]1N` [Compound 499], half-maximal inhibition (IC50) was put at 0.004 µM.

The record behind these values is patent US20090197856A1, “ANTIVIRAL COMPOUNDS” (Genelabs Technologies, Inc., priority 2007, published 2009).
